Values after ≈ are worked out from the molar mass of the structure shown.
How the values were obtained:
[1] = Plasma clearance in rat; format: ADME, organism-based
[2] = target: Phosphatidylinositol 4,5-bisphosphate 3-kinase catalytic subunit alpha isoform (Homo sapiens, UniProt P42336); assay: Inhibition of PI3Kalpha
MCF7 = assay: Cytotoxicity against human MCF7 cells; format: functional, cell-based
[3] = Ratio of permeability from basolateral to apical over apical to basolateral side in MDCKI cells; details: dog
Bcrp1 [4] = assay: Apparent permeability of the compound from apical to basolateral direction in MDCK2 cells expressing Bcrp1; format: ADME, cell-based, Canis lupus familiaris, MDCK-II; details: dog
Bcrp1 [5] = assay: Apparent permeability of the compound from apical to basolateral direction in MDCK2 cells expressing Bcrp1 in presence of fumitremorgin C; format: ADME, cell-based, Canis lupus familiaris, MDCK-II; details: dog, with fumitremorgin C
[6] = Ratio of permeability from basolateral to apical over apical to basolateral side in MDCK2 cells expressing Bcrp1; details: dog, mdck-ii
[7] = Oral bioavailability in rat at 5 mg/kg; format: ADME, organism-based; details: in vivo
[8] = Ratio of permeability from […] side in MDCK2 cells expressing Bcrp1 in presence of fumitremorgin C; format: ADME, cell-based, Canis lupus familiaris; details: dog, mdck-ii
[9] = Apparent permeability of the compound from apical to basolateral direction in MDCKI cells; format: ADME, cell-based, Canis lupus familiaris; details: dog, MDCK
MDR1 = assay: Apparent permeability of the compound from apical to basolateral direction in MDCKI cells expressing MDR1; format: ADME, cell-based, Canis lupus familiaris; details: dog, MDCK-MDR1
[10] = Ratio of permeability from basolateral to apical over apical to basolateral side in MDCKI cells expressing MDR1; details: dog
[11] = Solubility of the compound at pH 6.5; format: physicochemical; details: buffer
[12] = Inhibition of human Cytochrome P450; format: ADME
Mus musculus [13] = assay: In vivo inhibition of PI3K in human PC3 cells xenografted athymic nude mouse assessed as reduction of phosphorylated PRAS40 level at 50 mg/kg, po after 1 hr; format: functional; details: PC-3, 1 h
[14] = target: DNA-dependent protein kinase catalytic subunit (Homo sapiens, UniProt P78527); assay: Inhibition of DNA-PK
Mus musculus [15] = assay: In vivo inhibition of PI3K in human PC3 cells xenografted athymic nude mouse assessed as reduction of phosphorylated Akt level at 50 mg/kg, po after 6 hrs; format: functional; details: PC-3, 6 h
[16] = Metabolic stability in human hepatocytes assessed as compound remaining after 3 hrs; format: ADME, cell-based, Hepatocyte; details: read-out: Stability
[17] = Volume of distribution at steady state in human PC3 cells xenografted athymic nude mouse; format: ADME, organism-based, PC-3; details: in vivo, read-out: Vdss
[18] = target: Receptor-type tyrosine-protein kinase FLT3 (Homo sapiens) (UniProt P36888); assay: Inhibition of FLT3 at 1 uM
[19] = Plasma protein binding in mouse; format: ADME, cell-free; details: read-out: PPB (converted)
[20] = Metabolic stability in mouse hepatocytes assessed as compound remaining after 3 hrs; format: ADME, cell-based, Hepatocyte; details: read-out: Stability
[21] = target: Serine/threonine-protein kinase mTOR (Homo sapiens, UniProt P42345); assay: Inhibition of mTOR; details: read-out: Ki(app)
Mus musculus [22] = assay: In vivo inhibition of PI3K in human PC3 cells xenografted athymic nude mouse assessed as reduction of phosphorylated PRAS40 level at 50 mg/kg, po after 6 hrs; format: functional; details: PC-3, 6 h
Mus musculus [23] = assay: In vivo inhibition of PI3K in human PC3 cells xenografted athymic nude mouse assessed as reduction of phosphorylated Akt level at 50 mg/kg, po after 1 hr; format: functional; details: PC-3, 1 h
[24] = Oral bioavailability in human PC3 cells xenografted athymic nude mouse at 5 mg/kg; format: ADME, organism-based, PC-3; details: in vivo
[25] = Plasma clearance in human PC3 cells xenografted athymic nude mouse; format: ADME, organism-based, PC-3
Mus musculus [26] = assay: In vivo inhibition of PI3K in human PC3 cells xenografted athymic nude mouse assessed as reduction of phosphorylated S6RP level at 50 mg/kg, po after 1 hr; format: functional; details: PC-3, 1 h
Mus musculus [27] = assay: In vivo inhibition of PI3K in human PC3 cells xenografted athymic nude mouse assessed as reduction of phosphorylated S6RP level at 50 mg/kg, po after 6 hrs; format: functional; details: PC-3, 6 h

Chain of Phosphatidylinositol 4,5-bisphosphate 3-kinase catalytic subunit alpha isoform (P42336 whole entry, canonical isoform): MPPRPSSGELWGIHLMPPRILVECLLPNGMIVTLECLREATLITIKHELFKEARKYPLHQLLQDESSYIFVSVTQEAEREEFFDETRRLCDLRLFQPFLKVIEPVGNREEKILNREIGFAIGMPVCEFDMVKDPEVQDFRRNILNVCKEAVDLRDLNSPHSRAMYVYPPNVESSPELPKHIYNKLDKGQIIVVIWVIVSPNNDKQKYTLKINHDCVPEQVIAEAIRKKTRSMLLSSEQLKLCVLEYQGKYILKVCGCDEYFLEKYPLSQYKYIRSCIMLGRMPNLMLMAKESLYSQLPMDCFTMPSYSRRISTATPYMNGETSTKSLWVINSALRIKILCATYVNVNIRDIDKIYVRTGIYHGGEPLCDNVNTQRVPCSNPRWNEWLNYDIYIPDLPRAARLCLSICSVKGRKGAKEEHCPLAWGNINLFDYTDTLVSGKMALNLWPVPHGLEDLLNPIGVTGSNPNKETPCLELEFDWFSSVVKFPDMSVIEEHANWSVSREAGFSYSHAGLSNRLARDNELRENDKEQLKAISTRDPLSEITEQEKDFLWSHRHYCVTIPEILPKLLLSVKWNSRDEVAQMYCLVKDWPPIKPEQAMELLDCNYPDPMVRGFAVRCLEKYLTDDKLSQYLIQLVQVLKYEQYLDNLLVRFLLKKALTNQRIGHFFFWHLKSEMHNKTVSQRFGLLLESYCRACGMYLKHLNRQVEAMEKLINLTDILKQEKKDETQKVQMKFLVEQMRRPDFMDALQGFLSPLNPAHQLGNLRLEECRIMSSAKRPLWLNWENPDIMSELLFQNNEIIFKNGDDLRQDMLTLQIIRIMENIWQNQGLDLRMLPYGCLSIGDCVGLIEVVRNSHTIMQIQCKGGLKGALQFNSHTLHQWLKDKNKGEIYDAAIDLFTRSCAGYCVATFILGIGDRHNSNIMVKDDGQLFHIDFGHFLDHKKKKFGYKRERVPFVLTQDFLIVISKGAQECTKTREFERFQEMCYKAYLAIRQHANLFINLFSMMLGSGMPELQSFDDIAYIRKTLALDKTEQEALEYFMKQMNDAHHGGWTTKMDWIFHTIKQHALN
Chain of Receptor-type tyrosine-protein kinase FLT3 (Homo sapiens) (P36888 whole entry): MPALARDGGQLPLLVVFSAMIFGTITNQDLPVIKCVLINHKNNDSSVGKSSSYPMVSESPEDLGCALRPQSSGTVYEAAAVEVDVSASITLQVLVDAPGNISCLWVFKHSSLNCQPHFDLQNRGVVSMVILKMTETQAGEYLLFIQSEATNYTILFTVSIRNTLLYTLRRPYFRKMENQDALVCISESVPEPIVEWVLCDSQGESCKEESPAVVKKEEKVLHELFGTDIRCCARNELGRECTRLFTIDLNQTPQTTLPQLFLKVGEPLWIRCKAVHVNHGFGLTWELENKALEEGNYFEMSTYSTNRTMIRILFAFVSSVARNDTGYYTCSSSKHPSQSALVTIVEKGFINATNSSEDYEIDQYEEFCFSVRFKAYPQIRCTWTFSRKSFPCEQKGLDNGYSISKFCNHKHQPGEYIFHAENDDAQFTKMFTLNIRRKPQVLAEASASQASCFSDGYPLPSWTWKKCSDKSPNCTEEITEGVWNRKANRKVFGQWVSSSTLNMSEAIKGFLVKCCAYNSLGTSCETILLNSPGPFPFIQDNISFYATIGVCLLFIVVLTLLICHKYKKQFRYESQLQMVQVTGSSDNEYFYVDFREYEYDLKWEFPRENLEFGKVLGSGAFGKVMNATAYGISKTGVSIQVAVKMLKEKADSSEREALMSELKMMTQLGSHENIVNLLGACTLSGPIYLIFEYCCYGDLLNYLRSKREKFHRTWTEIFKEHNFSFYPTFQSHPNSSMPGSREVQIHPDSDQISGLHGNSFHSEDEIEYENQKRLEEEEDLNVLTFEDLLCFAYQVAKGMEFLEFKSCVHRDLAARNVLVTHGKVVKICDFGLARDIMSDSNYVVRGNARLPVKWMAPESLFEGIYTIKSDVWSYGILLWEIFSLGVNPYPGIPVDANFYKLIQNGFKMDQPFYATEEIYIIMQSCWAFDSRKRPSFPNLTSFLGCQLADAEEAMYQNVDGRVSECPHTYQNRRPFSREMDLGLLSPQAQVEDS

## CN1CCC(Nc2nc(-c3cccc4[nH]ncc34)nc3c2cnn3C)CC1
[1]
  clearance: 176 mL/min/kg
[2]
  IC50: 0.0083 µM
MCF7
  EC50: 1.5 µM

## CNC(=O)c1cccc(-c2nc(Nc3cccc(OC)c3)c3cnn(C)c3n2)c1
[2]
  IC50: 3.64 µM

## Cn1ncc2c(Nc3ccc(S(C)(=O)=O)cc3)nc(-c3cccc4[nH]ncc34)nc21
[3]
  Ratio: 6.7
[1]
  clearance: 20 mL/min/kg
Bcrp1 [4]
  Papp A→B: 0.03 ×10⁻⁶ cm/s
Bcrp1 [5]
  Papp A→B: 0.63 ×10⁻⁶ cm/s
[6]
  Ratio: 311
[2]
  IC50: 0.0014 µM
[7]
  bioavailability: 0%
MCF7
  EC50: 0.087 µM
[8]
  Ratio: 17.6
[9]
  Papp A→B: 0.37 ×10⁻⁶ cm/s
MDR1
  Papp A→B: 0.13 ×10⁻⁶ cm/s
[10]
  Ratio: 79
[11]
  solubility: 7.1 µg/mL (≈ 16.9 µM)

## COc1cccc(Nc2nc(N3CC(C)OC(C)C3)nc3c2cnn3C)c1 (stereo not drawn)
[2]
  IC50: 0.37 µM

## COc1cccc(Nc2nc(N3CCOCC3)nc3c2cnn3C)c1
[2]
  IC50: 0.162 µM

## COc1cccc(Nc2nc(-c3cccc(NC(C)=O)c3)nc3c2cnn3C)c1
[2]
  IC50: 0.386 µM

## COc1cccc(Nc2nc(N3CCCCC3)nc3c2cnn3C)c1
[2]
  IC50: 0.359 µM

## Cn1ncc2c(NCC(C)(C)CO)nc(-c3cccc4[nH]ncc34)nc21
[1]
  clearance: 103 mL/min/kg
[2]
  IC50: 0.0011 µM

## COc1cccc(Nc2nc(-c3cccc(S(C)(=O)=O)c3)nc3c2cnn3C)c1
[2]
  IC50: 0.056 µM

## COc1cccc(Nc2nc(N3CCC(O)CC3)nc3c2cnn3C)c1
[2]
  IC50: 0.43 µM

## COc1cccc(Nc2nc(-c3cnc(N)nc3)nc3c2cnn3C)c1
[2]
  IC50: 0.016 µM

## COc1cccc(Nc2nc(-c3cccc4[nH]nc(N)c34)nc3c2cnn3C)c1
[2]
  IC50: 0.011 µM

## Cn1ncc2c(Oc3ccc(S(C)(=O)=O)cc3)nc(-c3cccc4[nH]ncc34)nc21
[3]
  Ratio: 0.7
[1]
  clearance: 2 mL/min/kg
Bcrp1 [4]
  Papp A→B: 0.05 ×10⁻⁶ cm/s
[6]
  Ratio: 55.1
[2]
  IC50: 0.003 µM
[7]
  bioavailability: 29%
[9]
  Papp A→B: 2.5 ×10⁻⁶ cm/s
MDR1
  Papp A→B: 0.8 ×10⁻⁶ cm/s
[10]
  Ratio: 4.2
[11]
  solubility: 16 µg/mL (≈ 38.1 µM)

## COc1cccc(Nc2nc(-c3cccc4onc(C)c34)nc3c2cnn3C)c1
[2]
  IC50: 0.0017 µM

## COc1cccc(Nc2nc(-c3cccnc3)nc3c2cnn3C)c1
[2]
  IC50: 0.029 µM

## Cn1ncc2c(Oc3ccc(S(C)(=O)=O)cc3)cc(-c3cccc4[nH]ncc34)nc21
[12]
  IC50: > 20 µM
Mus musculus [13]
  inhibition in vivo at 50 mg/kg: 23%
[1]
  clearance: 8.4 mL/min/kg
[14]
  IC50: 1.02 µM
Mus musculus [15]
  inhibition in vivo at 50 mg/kg: 34%
[16]
  remaining at 3 h: 94%
[17]
  Vd: 1.1 L/kg
[18]
  inhibition: 27%
[19]
  fraction unbound: 0.012
[20]
  remaining at 3 h: 100%
[21]
  Ki: > 10 µM
[7]
  bioavailability: 107%
Mus musculus [22]
  inhibition in vivo at 50 mg/kg: 11%
Mus musculus [23]
  inhibition in vivo at 50 mg/kg: 44%
[24]
  bioavailability: 110%
[25]
  clearance: 12.7 mL/min/kg
[9]
  Papp A→B: 13.9 ×10⁻⁶ cm/s
MDR1
  Papp A→B: 1.2 ×10⁻⁶ cm/s
Mus musculus [26]
  inhibition in vivo at 50 mg/kg: 36%
[11]
  solubility: 15 µg/mL (≈ 35.8 µM)
Mus musculus [27]
  inhibition in vivo at 50 mg/kg: 17%

## COc1cccc(Nc2nc(-c3cccc4[nH]ncc34)nc3c2cnn3C)c1
[2]
  IC50: 0.0014 µM

## COc1cccc(Nc2nc(-c3cccc(C(N)=O)c3)nc3c2cnn3C)c1
[2]
  IC50: 0.072 µM

## Cn1ncc2c(NCCCS(C)(=O)=O)nc(-c3cccc4n[nH]cc34)nc21
[1]
  clearance: 139 mL/min/kg
MCF7
  EC50: 0.403 µM

## COc1cccc(Nc2nc(-c3cccc(OC)c3)nc3c2cnn3C)c1
[2]
  IC50: 0.134 µM

## Cn1ncc2c(-c3ccc(S(C)(=O)=O)cc3)nc(-c3cccc4[nH]ncc34)nc21
[3]
  Ratio: 0.5
Bcrp1 [4]
  Papp A→B: 3.8 ×10⁻⁶ cm/s
[6]
  Ratio: 4.8
[2]
  IC50: 0.0049 µM
[9]
  Papp A→B: 31.5 ×10⁻⁶ cm/s
MDR1
  Papp A→B: 7.6 ×10⁻⁶ cm/s
[10]
  Ratio: 3.2
[11]
  solubility: < 1 µg/mL
